Assay results taken from patent US20180092895A1, “METHOD OF TREATMENT OF HEPATITIS C” (priority 2016, published 2018).

Key:
HCV replicon = HCV replicon assay (antiviral activity, luciferase endpoint); assay type: cell-based, hepatitis C virus
Excerpt: (§1) Stable HCV replicons of different genotypes may be used for anti-HCV evaluation. We used the subgenomic HCV replicons of genotype 1a (H77 strain), 1b (Con1 strain), and 2a (JFH-1 strain), which are Huh7 human hepatoma cell lines that contains an HCV replicon.
The HCV replicon antiviral evaluation assay examined the effects of compounds at six serial dilutions. Human interferon alpha-2b (rIFNα-2b) and/or Sofosbuvir were included in each run as a positive control compound.
(§2) Briefly, the replicon cells were plated at 5,000 cells/well into 96-well plates that were dedicated for the analysis of cell numbers (cytotoxicity) or antiviral activity. On the following day, samples were diluted with assay media and added to the appropriate wells. Cells were processed 72 hours later when the cells were still sub-confluent. For the luciferase endpoint assay, HCV replicon levels were assessed as replicon-derived Luc activity. The concentration of drug that reduced cell viability was assessed by the fluorometric CytoTox-1 cell proliferation assay (Promega), (expressed as cell numbers). For the qRT-PCR/TaqMan assay, total RNA was extracted from the replicon cells using RNeasy 96 kit (Qiagen) according to the manufacturer's protocol. Real-time RTPCR/TaqMan assays were performed to measure copy numbers of the replicon RNA and cellular ribosomal RNA. Where applicable EC50 (concentration inhibiting HCV replicon by 50%), EC90 (concentration inhibiting HCV replicon by 90%), CC50 (concentration decreasing cell viability by 50%), CC90 (concentration decreasing cell viability by 90%) and SI (selectivity indices: CC50/EC50 and CC90/EC90) values were derived.

[1] = test system: cell culture-derived HCV (HCVcc); experiment: microbe, parasite or virus in culture; assay type: cell-based, hepatitis C virus
Experimental: (§3) Huh7.5 cells were grown in Dulbecco's modified essential media (DMEM), 10%0/fetal bovine serum (FBS), 1% penicillin-streptomycin (pen-strep), 1% Non-essential amino acids (NEAA) in a 5% CO2 incubator at 37° C. Huh7.5 cells were seeded at 1×10^4 cells per well into 96-well plates according to Southern Research Institute standard format. Test articles were serially diluted with DMEM plus 5% FBS. The diluted compound in the amount of […] was mixed with equal volume of cell culture-derived HCV (HCVcc), then applied to appropriate wells in the plate. Human interferon alpha-2b (rIFNα-2b) and/or Sofosbuvir were included as a positive control. After 72 hr incubation at 37° C., the cells were lysed for measurement of luciferase activity using Renilla Luciferase Assay System (Promega) according to manufacturer's instruction. The number of cells in each well were determined by CytoTox-1 reagent (Promega). Test articles were tested at 6 serial dilutions in triplicate to derive, if applicable, EC50 and EC90 (concentration inhibiting HCVcc infectivity by 50% and 90%, respectively), CC50 (concentration decreasing cell viability by 50%) and SI (selectivity index: CC50/EC50) values (Table 1).

in vitro = assay type: cell-based; conditions: human
Experimental: as §3

[2] = HCV replicon assay, cell viability (CytoTox-1); assay type: cell-based; conditions: human, Huh7 hepatoma cells containing a subgenomic HCV replicon, In vitro HCV replicon assay, post-infection, read-out: CC50 (concentration decreasing cell viability by 50%)
Experimental: as §1
as §2, with “Where applicable EC50 (concentration inhibiting HCV replicon by 50%), EC90 (concentration inhibiting HCV replicon by 90%), CC50 (concentration decreasing cell viability by 50%), CC90 (concentration decreasing cell viability by 90%) and SI (selectivity indices: CC50/EC50 and CC90/EC90) values were derived.” left out

## COC(=O)C1=C(C)NC(C)=C(C(=O)OC(C)C)C1c1cccc2nonc12 (centres unmarked) [Isradipine, isradipine]
HCV replicon; HCV replicon assay
  anti-Hepatitis C activity (in words): significant anti-Hepatitis C activity
HCV replicon; Hepatitis C virus, GT1B, 72 h, read-out: EC50 (concentration inhibiting HCV replicon by 50%)
  EC50: 51.4 µM
HCV replicon; In vitro HCV replicon assay, post-infection
  Selectivity index (CC50/EC50): 0.99
[1]; Hepatitis C virus, Huh7.5, 72 h, read-out: EC50 (concentration inhibiting HCVcc infectivity by 50%)
  EC50: 12.6 µM
[1]; In vitro HCV cc assay, pre-infection
  Selectivity index (CC50/EC50): 4.07
[1]; hepatitis C viral infectivity assay
  anti-Hepatitis C activity (in words): significant anti-Hepatitis C activity
In vitro
  CC50 at 72 h: 51.2 µM
[2]
  CC50 at 72 h: 50.8 µM
